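Growth conditions: 96-well plates. Treatment: test compound, 48 hours, 5 concentrations. Analysis: linear interpolation between bracketing concentrations; unreached endpoints set to highest concentration. At the GI50, growth is halved.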 Activity calls are given as the source filed them. Cut-off read from the data, not from the text of the source: active = GI50 up to about 1.1 µM and inactive = higher. Square brackets hold non-standard residues; d marks the D form. Peptide text beside a SMILES is read from it. Phe(4-Cl) = N[CH](Cc1ccc(Cl)cc1)C(=O)O; 2Nal = N[CH](Cc1ccc2ccccc2c1)C(=O)O; 3Pal = N[CH](Cc1cccnc1)C(=O)O
Key:
Assay in all cases: DTP human tumour cell line panel, 48 h
[1] = test system: UACC-62
[2] = test system: NCI/ADR-RES
[3] = test system: Hs-578T
[4] = test system: NCI-H522
[5] = test system: M14
[6] = test system: MDA-MB-435
[7] = test system: MCF7
[8] = test system: ACHN
[9] = test system: LOX IMVI
[10] = test system: HCT-116
[11] = test system: T47D
[12] = test system: UO-31
[13] = test system: COLO 205
[14] = test system: NCI-H226
[15] = test system: OVCAR-8
[16] = test system: MOLT-4
[17] = test system: A549
[18] = test system: U-251
[19] = test system: MDA-MB-231
[20] = test system: RXF 393

O=C1CC(Cl)c2c(Cl)sc(Cl)c21 (configuration not stated)
GI50 [1]: 2.16 µM (inactive) | GI50 [2]: 3.35 µM (inactive) | GI50 [3]: 7.38 µM (inactive) | GI50 [4]: 1.21 µM (inactive) | GI50 [5]: 1.88 µM (inactive) | GI50 [6]: 2.36 µM (inactive) | GI50 [7]: 0.794 µM (active) | GI50 [8]: 1.95 µM (inactive) | GI50 [9]: 1.66 µM (inactive) | GI50 [10]: 1.69 µM (inactive) | GI50 [11]: 2.92 µM (inactive) | GI50 [12]: 1.99 µM (inactive) | GI50 [13]: 2.02 µM (inactive) | GI50 [14]: 13.4 µM (inactive) | GI50 [15]: 1.8 µM (inactive) | GI50 [16]: 1.23 µM (inactive) | GI50 [17]: 3.56 µM (inactive)

N#Cc1nc(C2SCCCS2)oc1N
GI50 [1]: > 100 µM (inactive) | GI50 [3]: 43 µM (inactive) | GI50 [5]: > 100 µM (inactive) | GI50 [6]: > 100 µM (inactive) | GI50 [7]: > 100 µM (inactive) | GI50 [8]: > 100 µM (inactive) | GI50 [9]: > 100 µM (inactive) | GI50 [10]: > 100 µM (inactive) | GI50 [18]: > 100 µM (inactive) | GI50 [15]: > 100 µM (inactive) | GI50 [16]: > 100 µM (inactive) | GI50 [17]: > 100 µM (inactive) | GI50 [19]: > 100 µM (inactive)

O=C1CCN(CCC(F)(F)C(F)(F)C(F)(F)C(F)(F)C(F)(F)C(F)(F)F)C(=S)N1CCC(F)(F)C(F)(F)C(F)(F)C(F)(F)C(F)(F)C(F)(F)F
GI50 [1]: > 100 µM (inactive) | GI50 [3]: > 100 µM (inactive) | GI50 [4]: > 100 µM (inactive) | GI50 [5]: > 100 µM (inactive) | GI50 [6]: > 100 µM (inactive) | GI50 [7]: > 100 µM (inactive) | GI50 [8]: > 100 µM (inactive) | GI50 [10]: > 100 µM (inactive) | GI50 [20]: > 100 µM (inactive) | GI50 [11]: > 100 µM (inactive) | GI50 [12]: > 100 µM (inactive) | GI50 [13]: > 100 µM (inactive) | GI50 [18]: > 100 µM (inactive) | GI50 [14]: > 100 µM (inactive) | GI50 [15]: > 100 µM (inactive) | GI50 [16]: > 100 µM (inactive) | GI50 [17]: > 100 µM (inactive) | GI50 [19]: > 100 µM (inactive)

CC1(C)OCC(C(O)C2OC(C)(C)OC2C=O)O1 (configuration not stated)
GI50 [1]: > 100 µM (inactive) | GI50 [2]: > 100 µM (inactive) | GI50 [3]: > 100 µM (inactive) | GI50 [5]: > 100 µM (inactive) | GI50 [6]: > 100 µM (inactive) | GI50 [7]: > 100 µM (inactive) | GI50 [8]: > 100 µM (inactive) | GI50 [9]: > 100 µM (inactive) | GI50 [10]: > 100 µM (inactive) | GI50 [12]: > 100 µM (inactive) | GI50 [13]: > 100 µM (inactive) | GI50 [18]: > 100 µM (inactive) | GI50 [14]: > 100 µM (inactive) | GI50 [15]: > 100 µM (inactive) | GI50 [16]: > 100 µM (inactive) | GI50 [17]: > 100 µM (inactive) | GI50 [19]: > 100 µM (inactive)

O=c1[nH]c2cc3[nH]c4ncccc4c(=O)c3cc2[nH]1
GI50 [1]: > 10 µM (inactive) | GI50 [2]: > 10 µM (inactive) | GI50 [3]: > 10 µM (inactive) | GI50 [4]: > 10 µM (inactive) | GI50 [5]: > 10 µM (inactive) | GI50 [6]: > 10 µM (inactive) | GI50 [8]: > 10 µM (inactive) | GI50 [9]: > 10 µM (inactive) | GI50 [10]: > 10 µM (inactive) | GI50 [20]: > 10 µM (inactive) | GI50 [11]: > 10 µM (inactive) | GI50 [13]: > 10 µM (inactive) | GI50 [18]: > 10 µM (inactive) | GI50 [14]: > 10 µM (inactive) | GI50 [15]: > 10 µM (inactive) | GI50 [16]: > 10 µM (inactive) | GI50 [17]: > 10 µM (inactive) | GI50 [19]: > 10 µM (inactive)

NCC#CCNCCCN1CC1
GI50 [1]: > 100 µM (inactive) | GI50 [2]: > 100 µM (inactive) | GI50 [3]: > 100 µM (inactive) | GI50 [4]: > 100 µM (inactive) | GI50 [5]: > 100 µM (inactive) | GI50 [6]: > 100 µM (inactive) | GI50 [7]: > 100 µM (inactive) | GI50 [8]: > 100 µM (inactive) | GI50 [9]: > 100 µM (inactive) | GI50 [10]: > 100 µM (inactive) | GI50 [11]: > 100 µM (inactive) | GI50 [13]: > 100 µM (inactive) | GI50 [18]: > 100 µM (inactive) | GI50 [14]: > 100 µM (inactive) | GI50 [15]: > 100 µM (inactive) | GI50 [17]: > 100 µM (inactive)

Cc1ccc(C2(O)CS/C(=N\C34CC5CC(CC(C5)C3)C4)N2C(P(=O)(O)O)P(=O)(O)O)cc1 (configuration not stated)
GI50 [2]: 24.2 µM (inactive) | GI50 [3]: 73.1 µM (inactive) | GI50 [5]: > 100 µM (inactive) | GI50 [6]: > 100 µM (inactive) | GI50 [7]: 65.2 µM (inactive) | GI50 [8]: > 100 µM (inactive) | GI50 [10]: 37.1 µM (inactive) | GI50 [11]: 80.2 µM (inactive) | GI50 [12]: > 100 µM (inactive) | GI50 [13]: > 100 µM (inactive) | GI50 [18]: 38.6 µM (inactive) | GI50 [14]: > 100 µM (inactive) | GI50 [15]: 86.7 µM (inactive) | GI50 [16]: 37.9 µM (inactive) | GI50 [17]: 76.7 µM (inactive) | GI50 [19]: 56.6 µM (inactive)

CC(=O)NC(Cc1ccc2ccccc2c1)C(=O)NC(Cc1ccc(Cl)cc1)C(=O)NC(Cc1cccnc1)C(=O)NC(CO)C(=O)NC(Cc1ccc(O)cc1)C(=O)NC(CCCN=C(N)N)C(=O)NC(CC(C)C)C(=O)NC(CCCN=C(N)N)C(=O)N1CCCC1C(=O)NC(C)C(N)=O (configuration not stated) (Ac-[2Nal][Phe(4-Cl)][3Pal]SYRLRPA-NH2; configuration not given here)
GI50 [1]: 77.4 µM (inactive) | GI50 [2]: > 100 µM (inactive) | GI50 [3]: 50.2 µM (inactive) | GI50 [4]: > 100 µM (inactive) | GI50 [5]: > 100 µM (inactive) | GI50 [6]: 82.8 µM (inactive) | GI50 [7]: > 100 µM (inactive) | GI50 [8]: > 100 µM (inactive) | GI50 [20]: > 100 µM (inactive) | GI50 [12]: > 100 µM (inactive) | GI50 [13]: > 100 µM (inactive) | GI50 [18]: > 100 µM (inactive) | GI50 [14]: > 100 µM (inactive) | GI50 [15]: > 100 µM (inactive) | GI50 [16]: > 100 µM (inactive) | GI50 [17]: > 100 µM (inactive) | GI50 [19]: > 100 µM (inactive)

From ChEMBL document CHEMBL1201862, “PubChem BioAssay data set” (2004)
